Test results published in BindingDB's records for doi:10.1016/j.bmcl.2017.01.038 (Novartis Institutes For Biomedical Research, 2017).

Target: Protein kinase C beta type (Mus musculus) (UniProt P68404)
Experiment: Inhibition of PKCbeta in mouse B cells assessed as reduction in IgM-stimulated cell proliferation

Protein kinase C beta type (Mus musculus), sequence (P68404 whole entry, looked up): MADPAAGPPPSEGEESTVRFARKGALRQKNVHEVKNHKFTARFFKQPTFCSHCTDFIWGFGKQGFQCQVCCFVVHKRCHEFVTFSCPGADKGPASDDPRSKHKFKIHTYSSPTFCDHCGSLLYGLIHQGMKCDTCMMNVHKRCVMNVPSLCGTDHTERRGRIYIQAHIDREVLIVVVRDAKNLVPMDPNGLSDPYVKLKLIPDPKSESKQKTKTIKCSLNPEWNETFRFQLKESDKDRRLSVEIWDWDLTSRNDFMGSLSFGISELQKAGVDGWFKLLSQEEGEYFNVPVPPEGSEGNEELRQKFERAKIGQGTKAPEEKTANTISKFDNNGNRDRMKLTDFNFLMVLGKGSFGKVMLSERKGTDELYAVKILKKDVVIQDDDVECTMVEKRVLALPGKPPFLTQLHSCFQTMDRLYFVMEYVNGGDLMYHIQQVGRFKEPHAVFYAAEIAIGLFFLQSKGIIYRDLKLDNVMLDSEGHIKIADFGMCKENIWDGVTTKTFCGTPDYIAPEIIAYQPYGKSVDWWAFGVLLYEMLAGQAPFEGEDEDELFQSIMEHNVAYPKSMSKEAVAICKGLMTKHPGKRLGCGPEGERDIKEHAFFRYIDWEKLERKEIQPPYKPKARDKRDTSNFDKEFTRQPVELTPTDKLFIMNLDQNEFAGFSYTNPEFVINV

Structure (SMILES) | IC50 [nM]
CN(C)Cc1ccc2ccc(Cl)c(C3=C(c4cn(C)c5ccccc45)C(=O)NC3=O)c2c1 | 296
CN1CCN(c2nc(C3=C(c4c[nH]c5ccccc45)C(=O)NC3=O)c3ccccc3n2)CC1 [Sotrastaurin] | 234
